# Source: patent US9695155B2, “Herbicidal substituted pyrimidinyloxy benzene compounds” (E. I. DU PONT DE NEMOURS AND COMPANY, priority 2013, dated 2017)
# How the values were obtained:
# [1] = system: large (Lg) crabgrass; experiment: Test A preemergence; assay type: in vivo, Digitaria sanguinalis
# Outline: (§1)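 Visual 0–100 rating (100 = complete control) taken about 10 d post-treatment relative to untreated checks. Preemergence: directed soil spray on sown loam/sand pots. Postemergence: seedlings 2–10 cm, 1–2 leaf. Non-phytotoxic solvent formulation with surfactant.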
# [2] = system: giant foxtail; experiment: Test A preemergence; assay type: in vivo, Setaria faberii
# Outline: as §1
# [3] = system: morningglory; experiment: Test A preemergence; assay type: in vivo, Ipomoea spp.
# Outline: as §1
# [4] = system: wheat; experiment: Test A preemergence; assay type: in vivo, Triticum aestivum; settings: 125 g ai/ha, 0 to 100 scale where 0 is no effect and 100 is complete control
# Outline: as §1
# [5] = system: large (Lg) crabgrass; experiment: Test A postemergence; assay type: in vivo, Digitaria sanguinalis; settings: 0 to 100 scale where 0 is no effect and 100 is complete control
# Outline: as §1
# [6] = system: giant foxtail; experiment: Test A postemergence; assay type: in vivo, Setaria faberii; settings: 0 to 100 scale where 0 is no effect and 100 is complete control
# Outline: as §1
# [7] = system: velvetleaf; experiment: Test A postemergence; assay type: in vivo, Abutilon theophrasti; settings: 0 to 100 scale where 0 is no effect and 100 is complete control
# Outline: as §1
# [8] = system: corn; experiment: Test A postemergence; assay type: in vivo, Zea mays; settings: 0 to 100 scale where 0 is no effect and 100 is complete control
# Outline: as §1
# [9] = system: rice; experiment: Test B flooded paddy test; assay type: in vivo, Oryza sativa; settings: Flood, 250 g ai/ha; 0 to 100 scale where 0 is no effect and 100 is complete control
# Outline: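 Compound added straight to paddy water, with pots kept flooded 3 cm above soil, on plants grown to the 2-leaf stage. Visual scoring 0-100 (100 = complete control) against untreated controls after 13 to 15 greenhouse days.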
# [10] = system: Italian ryegrass; experiment: Test C postemergence; assay type: in vivo, Lolium multiflorum; settings: for Plant response rating, Ryegrass, Italian: Postemergence, scale 0 to 100 (0 no effect, 100 complete control)
# Outline: (§2)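 Visual ratings on a 0–100 scale (100 = complete control) were made versus untreated controls after 13–15 greenhouse days. Chemicals in a surfactant-containing non-phytotoxic solvent were applied either preemergence to seeds in loam–sand soil or postemergence to 1- to 4-leaf plants 2–18 cm tall.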
# [11] = system: morningglory; experiment: Test C postemergence; assay type: in vivo, Ipomoea coccinea; settings: for Plant response rating, Morningglory: Postemergence, scale 0 to 100 (0 no effect, 100 complete control)
# Outline: as §2
# [12] = system: yellow nutsedge; experiment: Test C postemergence; assay type: in vivo, Cyperus esculentus; settings: for Plant response rating, Nutsedge, Yellow: Postemergence, scale 0 to 100 (0 no effect, 100 complete control)
# Outline: as §2
# [13] = system: pigweed; experiment: Test C postemergence; assay type: in vivo, Amaranthus retroflexus; settings: for Plant response rating, Pigweed: Postemergence, scale 0 to 100 (0 no effect, 100 complete control)
# Outline: as §2
# [14] = system: kochia; experiment: Test C postemergence; assay type: in vivo, Kochia scoparia; settings: for Plant response rating, Kochia: Postemergence
# Outline: as §2
# [15] = system: wild oat; experiment: Test C postemergence; assay type: in vivo, Avena fatua; settings: for Plant response rating, Oat, Wild: Postemergence, scale 0 to 100 (0 no effect, 100 complete control)
# Outline: as §2
# [16] = 125 g ai/ha, 0 to 100 scale where 0 is no effect and 100 is complete control
# [17] = 500 g ai/ha, 0 to 100 scale, 0 no effect, 100 complete control, approx. 10 days
smiles,measurement,setting,value
Fc1cnc(Oc2cccc(C(F)F)c2-n2cc(Cl)cn2)nc1 [Compound 94],"Plant response rating, Crabgrass, Large",[1]; [16],100
same,"Crabgrass, Large plant response rating",[1]; [17],100
same,"Plant response rating, Foxtail, Giant",[2]; [16],100
same,"Foxtail, Giant plant response rating",[2]; [17],100
same,"Plant response rating, Morningglory",[3]; [16],40
same,Morningglory plant response rating,[3]; [17],90
same,"Plant response rating, Wheat",[4],0
same,"Plant response rating, Crabgrass, Large",[5]; 125 g ai/ha,50
same,"Plant response rating, Crabgrass, Large",[5]; 500 g ai/ha,90
same,"Plant response rating, Foxtail, Giant",[6]; 125 g ai/ha,70
same,"Plant response rating, Foxtail, Giant",[6]; 500 g ai/ha,90
same,"Plant response rating, Velvetleaf",[7]; 125 g ai/ha,90
same,"Plant response rating, Velvetleaf",[7]; 500 g ai/ha,100
same,"Plant response rating, Corn",[8]; 125 g ai/ha,30
same,"Plant response rating, Corn",[8]; 500 g ai/ha,50
same,"Plant response rating, Rice",[9],0
same,"Plant response rating (0 to 100), Ryegrass, Italian","[10]; 125 g ai/ha, postemergence",5
same,"Plant response rating, Ryegrass, Italian","[10]; 31 g ai/ha, 13 to 15 days",0
same,"Plant response rating, Ryegrass, Italian",[10]; 62 g ai/ha,0
same,"Plant response rating (0 to 100), Morningglory","[11]; 125 g ai/ha, postemergence",55
same,"Plant response rating, Morningglory","[11]; 31 g ai/ha, 13 to 15 days",75
same,"Plant response rating, Morningglory",[11]; 62 g ai/ha,75
same,"Plant response rating (0 to 100), Nutsedge, Yellow","[12]; 125 g ai/ha, postemergence",10
same,"Plant response rating, Nutsedge, Yellow","[12]; 31 g ai/ha, 13 to 15 days",5
same,"Plant response rating, Nutsedge, Yellow",[12]; 62 g ai/ha,45
same,"Plant response rating (0 to 100), Pigweed","[13]; 125 g ai/ha, postemergence",85
same,"Plant response rating, Pigweed","[13]; 31 g ai/ha, 13 to 15 days",80
same,"Plant response rating, Pigweed",[13]; 62 g ai/ha,80
same,Kochia plant response rating,"[14]; 16 g ai/ha, postemergence, visual rating, scale 0 to 100 (0 no effect, 100 complete control), 13 to 15 days",30
same,"Plant response rating (0 to 100), Kochia","[14]; 125 g ai/ha, postemergence",90
same,"Plant response rating, Kochia","[14]; 31 g ai/ha, scale 0 to 100 (0 no effect, 100 complete control), 13 to 15 days",80
same,"Plant response rating, Kochia","[14]; 62 g ai/ha, scale 0 to 100 (0 no effect, 100 complete control)",90
same,"Plant response rating (0 to 100), Oat, Wild","[15]; 125 g ai/ha, postemergence",5
same,"Plant response rating, Oat, Wild","[15]; 31 g ai/ha, 13 to 15 days",0
same,"Plant response rating, Oat, Wild",[15]; 62 g ai/ha,0
